Experimental data reported in patent US9873699B1, “Anti-cancer agents” (KING SAUD UNIVERSITY, priority 2017, dated 2018).

These molecules were tested on FaDu hypopharyngeal tumor cells (assay: Cytotoxicity assay (MTT)). Settings: 48 h.
Format: cell-based
Description: The synthesized series of compounds 4a-m stock solution were prepared by dissolved in DMSO (Sigma-Aldrich, St. Louis, Mo., USA) or dH2O. The stock solutions were diluted with cell culture medium and used as a working solution. Different concentration of working solution was exposed to 5 to 7×10^3 cells seeded 96 well plates after 24 h incubation. DMSO/dH2O was used as the solvent control. Nuclear morphological changes were monitored and photographed following treatment of synthesized compounds for 48 h using inverted microscope (Carl Zeiss, Jena, Germany). After incubation, plates were centrifuged and washed with cell culture medium. Subsequently, 20 μL of MTT solution [5 mg/mL in phosphate-buffered saline (PBS)] was added to each well, and the plates were protected from light and kept in CO2 incubator at 37° C. for 4 h. The purple color formazan product was formed and dissolved in 100 μL of DMSO. The absorbance was monitored at 570 nm (measurement) and 630 nm (reference) using a 96 well plate reader (Bio-Rad, Hercules, Calif., USA). Data were collected for four replicates each and used to calculate the median effect dose or concentration, i.e., IC50 using the Calcusyn software.
The cytotoxicity of synthesized compounds 4(a-m) on FaDu hypopharyngeal tumor cells was assessed for 48 h, in comparison with the commercial anti-cancer drug bleomycin under identical conditions (FIGS. 6&7). […] The percentage of apoptotic cells is indicated by the histograms and the data shown are the means from triplicates. Vertical bars represent standard error of the mean.

Molecule	cytotoxicity against cancer cells (in words)
5′-benzyl-4′-(4-bromopheynyl)-5-spiro[3,2′]oxindolopyrrolidino-4′-(4-bromophenyl-1″-styryl-5-benzylidene-spiro[3′.3″]piperidi-4″-one [Compound 4c]	good cytotoxicity
O=C1Nc2ccccc2C12NC(Cc1ccccc1)C(c1ccccc1Cl)C21CN(C=Cc2ccccc2)CC(=Cc2ccccc2Cl)C1=O (stereo not drawn) [Compound 4d]	good cytotoxicity
Cc1cccc(C=C2CN(C=Cc3ccccc3)CC3(C2=O)C(c2cccc(C)c2)C(Cc2ccccc2)NC32C(=O)Nc3ccccc32)c1 (stereo not drawn) [Compound 4h, 5′-benzyl-4′-(3-tolyl)-5-spiro[3,2′]oxindolopyrrolidino-4′-(3-methylphenyl)-1″-styryl-5-benzylidene-spiro[3′.3″]piperidi-4″-one]	good cytotoxicity
Cc1ccccc1C=C1CN(C=Cc2ccccc2)CC2(C1=O)C(c1ccccc1C)C(Cc1ccccc1)NC21C(=O)Nc2ccccc21 (stereo not drawn) [Compound 4g, 5′-benzyl-4′-(2-tolyl)-5-spiro[3,2′]oxindolopyrrolidino-4′-(2-methylphenyl)-1″-styryl-5-benzylidene-spiro[3′.3″]piperidi-4″-one]	excellent cytotoxic property
5′-benzyl-5-spiro[3,2′]oxindolopyrrolidino-4′-(methylphenyl)-1″-styryl-5-benzylidene-spiro[3′.3″]piperidi-4″-one [Compound 4a]	excellent cytotoxic property
5′-benzyl-4′-(2,4-dichloropheynyl)-5-spiro[3,2′]oxindolopyrrolidino-4′-(2,4-dichlorophenyl-1″-styryl-5-benzylidene-spiro[3′.3″]piperidi-4″-one [Compound 4e]	good cytotoxicity
